Laboratory results published in PubChem BioAssay AID1963444 (Molecular Pharmacology Branch, DTP, NCI, 2024).

System: HSSY-II complex spheroid growth, percent test/control
Test: Anticancer human tumor HSSY-II cell line growth inhibition [Asc];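 further: spheroids exposed to drug for 7 days before reading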
Settings: for IC50: curve of first compound; for viability, T/C: stronger effect = lower value
How it was run: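 Stromal components (HUVEC and hMSC) are co-assembled with the cancer cells into multicellular spheroids. Drugs are then added singly or paired, at concentrations falling by half-log increments from a clinically achievable maximum, capped at 10 microM without known Cmax.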

[1] = second compound 0.03 µM, first compound 0.0316 µM
[2] = second compound 0.03 µM, first compound 0.1 µM
[3] = second compound 0.03 µM, first compound 0.316 µM
[4] = second compound 0.03 µM, first compound 1 µM
[5] = second compound 0.03 µM, first compound 3.16 µM
[6] = second compound 0.03 µM, first compound 10 µM
[7] = second compound 0.0949 µM, first compound 0.0316 µM
[8] = second compound 0.0949 µM, first compound 0.1 µM
[9] = second compound 0.0949 µM, first compound 0.316 µM
[10] = second compound 0.0949 µM, first compound 1 µM
[11] = second compound 0.0949 µM, first compound 3.16 µM
[12] = second compound 0.0949 µM, first compound 10 µM
[13] = second compound 0.3 µM, first compound 0.0316 µM
[14] = second compound 0.3 µM, first compound 0.1 µM
[15] = second compound 0.3 µM, first compound 0.316 µM
[16] = second compound 0.3 µM, first compound 1 µM
[17] = second compound 0.3 µM, first compound 3.16 µM
[18] = second compound 0.3 µM, first compound 10 µM
[19] = second compound 0.949 µM, first compound 0.0316 µM
[20] = second compound 0.949 µM, first compound 0.1 µM
[21] = second compound 0.949 µM, first compound 0.316 µM
[22] = second compound 0.949 µM, first compound 1 µM
[23] = second compound 0.949 µM, first compound 3.16 µM
[24] = second compound 0.949 µM, first compound 10 µM
[25] = second compound 3 µM, first compound 0.0316 µM
[26] = second compound 3 µM, first compound 0.1 µM
[27] = second compound 3 µM, first compound 0.316 µM
[28] = second compound 3 µM, first compound 1 µM
[29] = second compound 3 µM, first compound 3.16 µM
[30] = second compound 3 µM, first compound 10 µM
[31] = second compound 0.03 µM, first compound 0.00316 µM
[32] = second compound 0.03 µM, first compound 0.01 µM
[33] = second compound 0.0949 µM, first compound 0.00316 µM
[34] = second compound 0.0949 µM, first compound 0.01 µM
[35] = second compound 0.3 µM, first compound 0.00316 µM
[36] = second compound 0.3 µM, first compound 0.01 µM
[37] = second compound 0.949 µM, first compound 0.00316 µM
[38] = second compound 0.949 µM, first compound 0.01 µM
[39] = second compound 3 µM, first compound 0.00316 µM
[40] = second compound 3 µM, first compound 0.01 µM

Structure (SMILES)	IC50 (second compound 0.03 µM) [nM]	IC50 (second compound 0.0949 µM) [nM]	IC50 (second compound 0.3 µM) [nM]	IC50 (second compound 0.949 µM) [nM]	IC50 (second compound 3 µM) [nM]	viability, T/C [1] [%]	viability, T/C [2] [%]	viability, T/C [3] [%]	viability, T/C [4] [%]	viability, T/C [7] [%]	viability, T/C [8] [%]	viability, T/C [9] [%]	viability, T/C [10] [%]	viability, T/C [13] [%]	viability, T/C [14] [%]	viability, T/C [15] [%]	viability, T/C [16] [%]	viability, T/C [19] [%]	viability, T/C [20] [%]	viability, T/C [21] [%]	also measured
CNC(C)C(=O)NC1CN(S(=O)(=O)c2cccc(S(=O)(=O)N3CCC4CCC(C(=O)NC(c5ccccc5)c5ccccc5)N4C(=O)C(NC(=O)C(C)NC)C3)c2)CCC2CCC(C(=O)NC(c3ccccc3)c3ccccc3)N2C1=O (stereo not given) + CCN1C(C(=O)NC23CCC(C(=O)O)(CC2)CC3)C(c2cccc(Cl)c2F)C2(C(=O)Nc3cc(Cl)ccc32)C12CCCCC2	> 1000	3.28	< 3.16	< 3.16	< 3.16	65.6	69.1	66.8	63.1	36.8	39.5	39.1	37.5	13.3	11	14.3	11.2	1.39	1.14	0.75	viability, T/C [31]: 76.3%; viability, T/C [32]: 81.6%; viability, T/C [33]: 49.2%; viability, T/C [34]: 48.4%; viability, T/C [35]: 13.5%; viability, T/C [36]: 13.5%; viability, T/C [37]: 2.72%; viability, T/C [38]: 1.74%; viability, T/C [22]: 1.15%; viability, T/C [39]: 0.64%; viability, T/C [40]: 0.51%; viability, T/C [25]: 0.48%; viability, T/C [26]: 0.47%; viability, T/C [27]: 0.62%; viability, T/C [28]: 0.46%
COc1c(OCCCN2CCOCC2)ccc2c3n(c(=NC(=O)c4cnc(N)nc4)nc12)CCN3 + CCN1C(C(=O)NC23CCC(C(=O)O)(CC2)CC3)C(c2cccc(Cl)c2F)C2(C(=O)Nc3cc(Cl)ccc32)C12CCCCC2	26.9	3.62	< 3.16	< 3.16	< 3.16	42.1	32.5	21	8.92	27.9	18.8	11.1	5.81	13.5	9.78	5.2	1.51	3.58	2.14	1.08	viability, T/C [31]: 83.3%; viability, T/C [32]: 70.4%; viability, T/C [33]: 50.1%; viability, T/C [34]: 44.8%; viability, T/C [35]: 27.8%; viability, T/C [36]: 18.8%; viability, T/C [37]: 5.84%; viability, T/C [38]: 4.85%; viability, T/C [22]: 0.52%; viability, T/C [39]: 1.52%; viability, T/C [40]: 1.05%; viability, T/C [25]: 0.78%; viability, T/C [26]: 0.45%; viability, T/C [27]: 0.29%; viability, T/C [28]: 0.25%

More lines, main results first:

IC50 (second compound 0.03 µM) [nM]	IC50 (second compound 0.0949 µM) [nM]	IC50 (second compound 0.3 µM) [nM]	IC50 (second compound 0.949 µM) [nM]	IC50 (second compound 3 µM) [nM]	Structure (SMILES)	viability, T/C [1] [%]	viability, T/C [2] [%]	viability, T/C [3] [%]	viability, T/C [4] [%]	viability, T/C [7] [%]	viability, T/C [8] [%]	viability, T/C [9] [%]	viability, T/C [10] [%]	viability, T/C [13] [%]	viability, T/C [14] [%]	viability, T/C [15] [%]	viability, T/C [16] [%]	viability, T/C [19] [%]	viability, T/C [20] [%]	viability, T/C [21] [%]	also measured
5960	3250	< 31.6	< 31.6	< 31.6	C#Cc1c(F)ccc2cc(O)cc(-c3ncc4c(N5CC6CCC(C5)N6)nc(OCC56CCCN5CC(F)C6)nc4c3F)c12 (stereo not given) + CCN1C(C(=O)NC23CCC(C(=O)O)(CC2)CC3)C(c2cccc(Cl)c2F)C2(C(=O)Nc3cc(Cl)ccc32)C12CCCCC2	91.6	96.6	91.1	90.7	52.4	62.3	65.7	59	24.8	27.5	26	20.6	7.03	7.37	6.79	viability, T/C [5]: 80.8%; viability, T/C [6]: 24.9%; viability, T/C [11]: 50.6%; viability, T/C [12]: 9.38%; viability, T/C [17]: 20.2%; viability, T/C [18]: 0.94%; viability, T/C [22]: 5.65%; viability, T/C [23]: 5.67%; viability, T/C [24]: 0.22%; viability, T/C [25]: 2.13%; viability, T/C [26]: 2.33%; viability, T/C [27]: 2.2%; viability, T/C [28]: 1.74%; viability, T/C [29]: 1.34%; viability, T/C [30]: 0.27%
1090	340	< 31.6	< 31.6	< 31.6	C=C(F)C(=O)N1CCN(c2nc(OCC3CCCN3C)nc3c2CCN(c2cccc4cccc(Cl)c24)C3)CC1CC#N (stereo not given) + CCN1C(C(=O)NC23CCC(C(=O)O)(CC2)CC3)C(c2cccc(Cl)c2F)C2(C(=O)Nc3cc(Cl)ccc32)C12CCCCC2	93.7	82.3	77.1	55.2	64.5	66.6	49.1	26.5	26.3	23.1	19.9	13.4	8.79	7.11	6.61	viability, T/C [5]: 1.72%; viability, T/C [6]: 0.13%; viability, T/C [11]: 0.75%; viability, T/C [12]: 0.1%; viability, T/C [17]: 0.42%; viability, T/C [18]: 0.12%; viability, T/C [22]: 3.73%; viability, T/C [23]: 0.07%; viability, T/C [24]: 0.12%; viability, T/C [25]: 3.47%; viability, T/C [26]: 2.72%; viability, T/C [27]: 2.77%; viability, T/C [28]: 1.35%; viability, T/C [29]: 0.15%; viability, T/C [30]: 0.21%
7300	2580	< 31.6	< 31.6	< 31.6	C=CC(=O)N1CCN(c2nc(=O)n(-c3c(C)ccnc3C(C)C)c3nc(-c4c(O)cccc4F)c(F)cc23)C(C)C1 (stereo not given) + CCN1C(C(=O)NC23CCC(C(=O)O)(CC2)CC3)C(c2cccc(Cl)c2F)C2(C(=O)Nc3cc(Cl)ccc32)C12CCCCC2	87.5	89.6	89.5	88	60.3	63.9	65.2	62.7	25.3	26.3	26	23.6	7.57	7.88	7.75	viability, T/C [5]: 84.7%; viability, T/C [6]: 36.9%; viability, T/C [11]: 47.3%; viability, T/C [12]: 18.4%; viability, T/C [17]: 20.9%; viability, T/C [18]: 9.83%; viability, T/C [22]: 6.93%; viability, T/C [23]: 6.22%; viability, T/C [24]: 6.06%; viability, T/C [25]: 2.1%; viability, T/C [26]: 2.5%; viability, T/C [27]: 2.3%; viability, T/C [28]: 2.77%; viability, T/C [29]: 2.35%; viability, T/C [30]: 1.69%
